Data published in patent US20210221848A1, “POLYMYXIN DERIVATIVES AND THEIR USE IN COMBINATION THERAPY TOGETHER WITH DIFFERENT ANTIBIOTICS” (priority 2014, published 2021).

Tests used:
P. aeruginosa = conditions: absence of a second agent, Table 6B
K. pneumoniae [1] = assay: MIC in the presence of a fixed concentration (2 μg/mL) of Rifampicin; assay type: cell-based, Klebsiella pneumoniae; conditions: Rifampicin 2 μg/mL
A. baumannii [2] = conditions: absence of a second agent, Table 6B
E. coli [3] = assay: MIC in the presence of a fixed concentration (2 μg/mL) of Rifampicin; assay type: cell-based, Escherichia coli; conditions: Rifampicin 2 μg/mL
A. baumannii [4] = assay: MIC in the presence of […] of rifampicin; assay type: cell-based, Acinetobacter baumannii
E. coli [5] = conditions: absence of a second agent, Table 6B
HK-2 cell line = assay: In vitro renal cell toxicity assay (resazurin reduction)
Experimental: MICs were determined as described herein. HK-2 cell IC50 values were determined as described herein. Values are reported relative to Polymyxin B.

P. aeruginosa ATCC 27853 = assay: In vivo efficacy, thigh infection in mice, IV dosing, 9 h model; parameters: species or system Pseudomonas aeruginosa; conditions: mouse thigh, dose 3.4 mg/kg drug base IV at 1, 3.5 and 6 h post-infection
Experimental: Compounds were administered in solution by intravenous (IV) bolus injection into the lateral tail vein. […] At 1 hour post infection, 4 animals were humanely euthanized using pentabarbitone overdose to provide a pre-treatment control group. At 9 hours post infection, the clinical condition of all animals was assessed prior to them being humanely euthanized by pentabarbitone overdose. Animal weight was determined before both thighs were removed and weighed individually. Individual thigh tissue samples were homogenized in ice cold sterile phosphate buffered saline. Thigh homogenates were then quantitatively cultured onto cystine lactose electrolyte deficient (CLED) agar and incubated at 37° C. for 24 hours before colonies were counted.

K. pneumoniae [6] = conditions: absence of a second agent, Table 6B
[7] = test system: Escherichia coli ATCC 25922; conditions: mouse thigh, 1.47 mg/kg/dose free base IV at 1, 3.5 and 6 h post-infection, 9 h model
[8] = A. baumannii ATCC BAA-747, Table 5C
[9] = A. baumannii ATCC BAA-747, Table 5D
[10] = A. baumannii NCTC 13424, Table 5C
[11] = A. baumannii NCTC 13424, Table 5D

Row | Substance | MIC, P. aeruginosa ATCC 27853 (P. aeruginosa) | MIC, P. aeruginosa CCUG 59347 (P. aeruginosa) | MIC in combination with Rifampicin, K. pneumoniae ATCC 4352 (K. pneumoniae [1]; Table 5C) | MIC in combination with Rifampicin, K. pneumoniae ATCC 4352 (K. pneumoniae [1]; Table 5D) | MIC in combination with Rifampicin, K. pneumoniae ATCC BAA-2146 (K. pneumoniae [1]; Table 5C) | MIC in combination with Rifampicin, K. pneumoniae ATCC BAA-2146 (K. pneumoniae [1]; Table 5D) | MIC, A. baumannii ATCC BAA-747 (A. baumannii [2]) | MIC, A. baumannii NCTC 13424 (A. baumannii [2]) | MIC in combination with Rifampicin, E. coli ATCC 25922 (E. coli [3]; Table 5C) | MIC in combination with Rifampicin, E. coli ATCC 25922 (E. coli [3]; Table 5D) | MIC in combination with Rifampicin, E. coli NCTC 13441 (E. coli [3]; Table 5C) | MIC in combination with Rifampicin, E. coli NCTC 13441 (E. coli [3]; Table 5D) | MIC in combination with Rifampicin, A. baumannii ATCC BAA-747 (A. baumannii [4]; [8]) | MIC in combination with Rifampicin, A. baumannii ATCC BAA-747 (A. baumannii [4]; [9]) | MIC in combination with Rifampicin, A. baumannii NCTC 13424 (A. baumannii [4]; [10]) | MIC in combination with Rifampicin, A. baumannii NCTC 13424 (A. baumannii [4]; [11]) | MIC, E. coli ATCC 25922 (E. coli [5]) | MIC, E. coli NCTC 13441 (E. coli [5]) | Log reduction from vehicle (CFU/g) (P. aeruginosa ATCC 27853) | MIC, K. pneumoniae ATCC 4352 (K. pneumoniae [6]) | other results
1 | 1,2,3,4- tetrahydroisoquinoline- 4-carbonyl polymyxin B nonapeptide [Example D15] | 0.25 micrograms/mL | 0.5 micrograms/mL | 0.03 micrograms/mL | ≤0.015 micrograms/mL | 0.125 micrograms/mL | 0.125 micrograms/mL | 2 micrograms/mL | 2 micrograms/mL | ≤0.015 micrograms/mL | ≤0.015 micrograms/mL | 0.03 micrograms/mL | 0.03 micrograms/mL | ≤0.015 micrograms/mL | ≤0.015 micrograms/mL | ≤0.015 micrograms/mL | ≤0.015 micrograms/mL | 0.25 micrograms/mL | 0.5 micrograms/mL | 3.89 log10 CFU/g |  | HK-2 IC50 rel to PMB (HK-2 cell line): 17
2 | (S)-1-benzyl piperazine-2-carbonyl polymyxin B nonapeptide [Example D52] | 0.5 micrograms/mL | 0.5 micrograms/mL |  |  |  |  | 0.5 micrograms/mL | 0.25 micrograms/mL |  |  |  |  |  |  |  |  | 0.125 micrograms/mL | 0.125 micrograms/mL |  | 0.125 micrograms/mL | MIC, K. pneumoniae ATCC BAA-2146 (K. pneumoniae [6]): 0.25 micrograms/mL; Mean log10 CFU reduction vs. control [7]: 4.04 log10 CFU
3 | (cis-5-cyclohexyl- piperidine)-3-carbonyl polymyxin B nonapeptide [Example D11] | 0.5 micrograms/mL | 0.5 micrograms/mL | 0.06 micrograms/mL | 0.125 micrograms/mL | 1 micrograms/mL | 0.5 micrograms/mL | 1 micrograms/mL | 0.5 micrograms/mL | ≤0.015 micrograms/mL | 0.125 micrograms/mL | 0.06 micrograms/mL | 0.06 micrograms/mL | 0.06 micrograms/mL | 0.125 micrograms/mL | 0.5 micrograms/mL | 0.25 micrograms/mL | 0.25 micrograms/mL | 0.25 micrograms/mL | 3.86 log10 CFU/g | 0.25 micrograms/mL | MIC, K. pneumoniae ATCC BAA-2146 (K. pneumoniae [6]): 0.25 micrograms/mL
